For series [1], the system named is porcine hearts. In words: Artificially induced hemorrhage in porcine hearts by intracoronary injection of collagenase after 8 min ischemia. It counts as in vivo, Yorkshire pigs. Particulars: for Epicardial and intramyocardial hemorrhage: sacrifice at 24 hrs. As for the experimental part:
(§1) 21 Yorkshire pigs (19-31 kg) were included in the study and 7-9 ml phosphate-buffered solution containing collagenase was injected using an over-the-wire angioplasty balloon catheter that was advanced to mid LAD after 2nd diagonal branch; balloon inflation was maintained for 8 min (ischemia). Six doses (250, 600, 800, 1200, 1600, and 3200 mcg) of collagenase were administered in equally divided groups; there was no mortality attributable to collagenase infusion. Animals were sacrificed at 24 hrs and hearts were explanted for histological analysis. […] After establishing this model, a pilot study was initiated to artificially induce hemorrhage in one animal subjected to a 45 min LAD occlusion, which is inherently non-hemorrhagic. Collagenase was injected immediately after balloon deflation i.e. during reperfusion at an intermediate dose of 1000 mcg. […] This was unlike the untreated 45 min infarcts studied. Currently, the causality between hemorrhage and MVO is unknown. The blood spilt in the interstitium might have compressed the microvasculature that was already vulnerable due to the initial ischemic insult; in other words, hemorrhage may have created the MVO.

Series [2] concerns porcine hearts. The series is described as follows: Collagenase injection during reperfusion after 45 min LAD occlusion, MRI at day 2. It is filed as in vivo, pig. Particulars: 1000 mcg during reperfusion, day 2 post-AMI, one animal. As for the experimental part: as §1
Series [3] deals with porcine model of myocardial infarction. In words: Porcine model of myocardial infarction (90 min LAD occlusion, reperfusion), pilot study monitored by MRI. It counts as in vivo. Particulars: for Ejection fraction (EF) / Vasodilatory dysfunction (remote myocardium T2) / Inflammation or edema (T2) / Ventricular volume (end-diastolic and end-systolic volumes): pigs N=2, oral 100 mg/kg daily; for Inflammation or edema (T2): infarct zone; for Ventricular volume (end-diastolic and end-systolic volumes): up to 4 weeks; for Hemorrhage (from T2* image): pigs N=2, oral pre-loading then 100 mg/kg daily, MRI day 2 to week 4. As for the experimental part: Post-infarct remodeling is a complex process with various pathophysiological changes occurring simultaneously (19) whose inter-dependence has not been completely understood in vivo. An initial study was performed to assess evolution of: 1) edema (T2); 2) hemorrhage (T2*); 3) cardiac function; 4) infarct/MVO size and 5) vasodilatory function in a porcine model of myocardial infarction. The left anterior descending artery (LAD) was occluded for 90 min followed by reperfusion; this model consistently produced anteroseptal transmural infarcts characterized by MVO. Pattern of progression of edema, hemorrhage and infarct/MVO was apparent on T2-, T2*-maps and contrast-enhanced (CE) images as shown in a representative animal (FIG. 1). Post-infarct LV remodeling was monitored by observing the cumulative time course of quantitative MRI parameters (FIG. 2). […] Vasodilator function (or perfusion reserve) was evaluated with T2-based Blood-oxygen-level-dependent (BOLD) imaging using a pharmacological vasodilator (FIG. 4). […] The failure of remote vasodilatory function to regain control levels in the chronic phase of AMI potentially served as a predictor of subsequent adverse LV remodeling. […] Importantly, the evolution of MRI parameters was well correlated with histological features, similar to patterns seen in humans (24); this justified using a large animal model, e.g., porcine, for translation to the clinic. Two papers based on this work were published in MRM (32, 76).
Excess tissue iron accumulation can be lethal as free iron is toxic in nature. It has been speculated that iron chelation may be beneficial in acute coronary syndromes and that early treatment can limit ischemia-reperfusion injury and also reduce infarct size (83, 84). However, the role of iron chelation in hemorrhagic infarction has not yet been explored. In the present example, the cardioprotective properties of the iron chelating agent deferiprone (DFP) were explored in a porcine model of myocardial infarction. Deferiprone offered several advantages in that it is a very small molecule, both hydrophilic and lipophilic and highly membrane permeable; it can readily enter mitochondria and may access intracellular labile iron. In a pilot study, DFP was administered (orally) to pigs (N=2) a few hours before a 90 min LAD occlusion (pre-loading), and treatment was continued with a daily dose of 100 mg/kg (85). Animals were then monitored with a comprehensive MRI exam from day 2 to week 4. […] The result shown in FIG. 14 compared to FIG. 1 show the neutralizing capacity of DFP.

Series [4] shares this test system. The series is described as follows: Hemorrhagic myocardial infarction in porcine model, remodeling monitored by CMR (Example 3). It counts as in vivo. The protocol:
A quantitative study was done to investigate the effect of the deferiprone (DFP) on the hemorrhagic byproducts in tissue in a porcine model of myocardial infarction, and to monitor remodeling by cardiovascular magnetic resonance (CMR).
The study involved two groups of animals that were subjected to a 90 min balloon occlusion of the left anterior descending artery (LAD) followed by reperfusion—untreated (N=2) and DFP treated (N=2). DFP was administered (orally) a few hours (about 1-2 hours) before the procedure (pre-loading) and treatment was continued with a daily dose of 100 mg/kg. Imaging was performed on a 3T MRI scanner (MR 750, GE Healthcare) pre-AMI (healthy), day 2, week 1, week 2 and week 4 post-AMI. Edema was evaluated by T2 quantification using a T2-prepared spiral sequence and hemorrhage was identified by T2* using a multi-echo gradient-echo acquisition. Infarct assessment was performed by delayed hyperenhancement (DHE) using an IR-GRE sequence.

Series [5] concerns Langendorff heart preparation. The conditions noted are these: constant deferiprone infusion of 50 μM, ex vivo; cited from earlier work.
The mark [6] stands for this setting: 90 min LAD occlusion, listed as DFP, 100 mg/kg.
Setting [7] is: DFP treated N=2, 100 mg/kg daily.

“Also recorded” adds a separate entry of the source. A value given as a limit tells only on which side of the number the result lay.

For collagenase, the “Mortality attributable to collagenase infusion” value in series [1] (250-3200 mcg intracoronary, 21 pigs) is “no mortality”. Also, the “Epicardial and intramyocardial hemorrhage” value is recorded as “mild-moderate” in series [1] (800-1600 mcg intracoronary), “severe” in series [1] (3200 mcg intracoronary) and “none or mild focal” in series [1] (up to 600 mcg intracoronary). Also, the “Infarction (histology)” value in series [1] (intracoronary collagenase after 8 min ischemia) is “No infarction”. In addition, the “Dose resulting in hemorrhage on explanted hearts” value in series [1] (intracoronary, after 8 min ischemic episode) is over 800 µg. Also, the “Hemorrhage on T2*-weighted images” value in series [2] was “Signal void”; in series [2] (listed as Collagenase), “signal void”. In addition, the “MVO on DHE images” value in series [2] is given as “corresponded with an MVO”; in series [2] (listed as Collagenase), “presence of MVO”.

With `Cc1c(O)c(=O)ccn1C` [deferiprone], in series [3] (90 min LAD occlusion), the “Ejection fraction (EF)” value was “reduced gradually”; the “Vasodilatory dysfunction (remote myocardium T2)” value is listed as “impaired vasodilatory function only at day 2”; the “Ventricular volume (end-diastolic and end-systolic volumes)” value is listed as “Relatively unchanged”; the “Hemorrhage (from T2* image)” value is recorded as “observed only on day 2 but resolved by week 1; also recorded: only observed on day 2, which later resolved”. Besides, the “Inflammation or edema (T2)” value in series [3] (90 min LAD occlusion, 100 mg/kg) is “substantially subsided at week 4; also recorded: substantially subsided beyond week 2”. In addition, in series [3] (setting [6]), the “Inflammation or edema (T2)” value is listed as “substantially reduced by week 4”; the “Ventricular volume (end-diastolic and end-systolic volumes)” value was “relatively unchanged”; the “Ejection fraction (EF)” value was “gradually depressed by week 4”; the “Vasodilatory dysfunction (remote myocardium T2)” value is listed as “observed only at day 2”. Besides, the “Hemorrhage (from T2* image)” value in series [3] (90 min LAD occlusion, listed as DFP) is “observed only on day 2 and by week 1 it had completely resolved”. Further, the Side effects result in series [3] (pigs, oral 100 mg/kg daily, throughout the 4 weeks of observation) is on record as “No side effects”. The “Microvascular obstruction (MVO)” value in series [3] (representative animal, 90 min LAD occlusion, seen on day 2) was “partially resolved by week 1”. In series [4] (setting [7]), the “Ejection fraction (EF)” value was “depressed by week 4”; the “End-diastolic and end-systolic volumes” value was “relatively unchanged”; the “Inflammation and edema (T2)” value is on record as “substantially reduced by week 4”. In addition, in series [4] (DFP treated N=2, 100 mg/kg daily, seen on day 2), the “Microvascular obstruction (MVO)” value is on record as “partially resolved by week 1”. Besides, in series [4] (DFP treated N=2, oral pre-loading then 100 mg/kg daily, 90 min LAD occlusion, listed as DFP), the “Hemorrhage (as indicated by T2* image)” value is “observed only on day 2 and by week 1 it had completely resolved”. For the same compound, the Free radical activity result in series [5] was “reduction”.

The record behind these values is US20140314676A1, “METHODS OF TREATMENT WITH DEFERIPRONE” (APOTEX TECHNOLOGIES INC., priority 2011, published 2014).
